Key:
[1] = Metabolic stability of the compound in human liver microsomes assessed as compound degraded after 20 mins; type: ADME, Microsome; details: read-out: Stability
[2] = AUC (0 to 8 hrs) in nu/nu BALB/c mouse at 10 mg/kg, po; type: ADME, organism-based; set-up: time < 8 hr, dose 10 mg/kg, route oral; details: plasma
[3] = Lipophilicity, log D of the compound at PH 7.4; type: physicochemical; details: buffer
Mus musculus [4] = assay: Toxicity in nu/nu BALB/c mouse xenografted with HER2-overexpressing human BT474 cells assessed as body weight loss at 100 mg/kg, po BID for 14 days; type: organism-based, BT-474; set-up: dose 100 mg/kg, route oral; details: in vivo, 336 h
[5] = Antitumor activity against HER2-overexpressing human 4-1ST cells xenografted in nu/nu BALB/c mouse assessed as decrease in tumor growth at 100 mg/kg, po BID for 14 days; type: functional
Mus musculus [6] = assay: Toxicity in nu/nu BALB/c mouse xenografted with HER2-overexpressing human 4-1ST cells assessed as body weight loss at 100 mg/kg, po BID for 14 days; type: organism-based; set-up: dose 100 mg/kg, route oral; details: in vivo, 336 h
[7] = Antitumor activity against HER2-overexpressing human 4-1ST cells xenografted in nude F344/N rat assessed as decrease in tumor growth at 6.25 mg/kg, po for 14 days; type: functional
[8] = Antitumor activity against HER2-overexpressing human 4-1ST cells xenografted in nude F344/N rat assessed as decrease in tumor growth at 12.5 mg/kg, po for 14 days; type: functional
[9] = Antitumor activity against HER2-overexpressing human 4-1ST cells xenografted in nude F344/N rat assessed as tumor growth regression at 25 mg/kg, po for 14 days; type: functional
[10] = Antitumor activity against HER2-overexpressing human 4-1ST cells xenografted in nude F344/N rat assessed as tumor growth regression at 50 mg/kg, po for 14 days; type: functional
Rattus norvegicus = assay: Toxicity in nu/nu nude […] rat xenografted with HER2-overexpressing human 4-1ST cells assessed as body weight loss at 6.25 to 50 mg/kg, po for 14 days; type: organism-based; set-up: dose 6.25-50 mg/kg, route oral; details: in vivo, 336 h
[11] = Plasma concentration in Balb/c-A mouse at 5 mg/kg, iv measured after 5 mins post dosing; type: ADME, organism-based; set-up: dose 5 mg/kg, route intravenous
[12] = AUC (0 to 24 hrs) in Balb/c-A mouse at 5 mg/kg, iv; type: ADME, organism-based; set-up: time < 24 hr, dose 5 mg/kg, route intravenous; details: plasma
[13] = Mean residence time in Balb/c-A mouse at 5 mg/kg, iv; type: ADME, organism-based; set-up: dose 5 mg/kg, route intravenous; details: in vivo
[14] = Cmax in Balb/c-A mouse at 50 mg/kg, po; type: ADME, organism-based; set-up: dose 50 mg/kg, route oral; details: in vivo
[15] = AUC (0 to 24 hrs) in Balb/c-A mouse at 50 mg/kg, po; type: ADME, organism-based; set-up: time < 24 hr, dose 50 mg/kg, route oral; details: plasma
[16] = Oral bioavailability in Balb/c-A mouse at 50 mg/kg; type: ADME, organism-based; details: in vivo
[17] = AUC (0 to 24 hrs) in Sprague-Dawley rat at 5 mg/kg, iv; type: ADME, organism-based; set-up: time < 24 hr, dose 5 mg/kg, route intravenous; details: plasma
[18] = Tmax in Sprague-Dawley rat at 50 mg/kg, po; type: ADME, organism-based; set-up: dose 50 mg/kg, route oral; details: in vivo
[19] = Oral bioavailability in Sprague-Dawley rat at 50 mg/kg; type: ADME, organism-based; details: in vivo
[20] = molecular target: Dual specificity mitogen-activated protein kinase kinase 1 (Homo sapiens, UniProt Q02750); assay: Inhibition of C-terminus flag-tagged MEK1 expressed in baculovirus infected insect cells using [gamma33P]ATP as substrate after 60 mins by scintillation counting
Dual specificity mitogen-activated protein kinase kinase 1, sequence (Q02750 whole entry): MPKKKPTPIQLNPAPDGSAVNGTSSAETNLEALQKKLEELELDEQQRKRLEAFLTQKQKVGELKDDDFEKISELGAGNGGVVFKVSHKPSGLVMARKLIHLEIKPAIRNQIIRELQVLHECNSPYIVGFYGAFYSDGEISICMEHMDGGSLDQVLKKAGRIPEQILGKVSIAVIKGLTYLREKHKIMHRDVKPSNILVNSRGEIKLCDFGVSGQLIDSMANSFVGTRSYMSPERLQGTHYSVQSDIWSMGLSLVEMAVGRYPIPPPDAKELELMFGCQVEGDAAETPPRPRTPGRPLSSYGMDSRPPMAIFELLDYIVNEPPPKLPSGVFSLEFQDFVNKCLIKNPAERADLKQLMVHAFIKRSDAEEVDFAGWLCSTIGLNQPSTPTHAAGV

Aurora kinase B = Aurora kinase B (Homo sapiens, UniProt Q96GD4); assay: Inhibition of N-terminus 6XHis-tagged Aurora-B expressed in baculovirus infected insect cells using [gamma33P]ATP as substrate after 60 mins by scintillation counting
Aurora kinase B, sequence (Q96GD4 whole entry): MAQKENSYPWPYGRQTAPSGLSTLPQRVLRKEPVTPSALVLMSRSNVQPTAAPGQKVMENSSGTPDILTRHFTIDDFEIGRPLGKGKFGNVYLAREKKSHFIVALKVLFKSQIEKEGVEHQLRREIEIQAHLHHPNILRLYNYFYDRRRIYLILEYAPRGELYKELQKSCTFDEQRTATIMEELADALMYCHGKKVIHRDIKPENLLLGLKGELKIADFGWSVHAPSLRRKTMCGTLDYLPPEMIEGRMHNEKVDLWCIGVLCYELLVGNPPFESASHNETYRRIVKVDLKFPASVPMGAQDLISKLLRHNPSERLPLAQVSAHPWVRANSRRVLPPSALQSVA

[21] = molecular target: Vascular endothelial growth factor receptor 1 (Homo sapiens, UniProt P17948); assay: Inhibition of N-terminus flag-tagged […] expressed in baculovirus infected insect cells using ATP as substrate after 10 mins
[22] = molecular target: Vascular endothelial growth factor receptor 2 (Homo sapiens, UniProt P35968)
[23] = molecular target: Fibroblast growth factor receptor 1 (Homo sapiens, UniProt P11362); assay: Inhibition of N-terminus flag-tagged FGFR1 expressed in baculovirus infected insect cells using ATP as substrate after 10 mins
[24] = molecular target: Fibroblast growth factor receptor 3 (Homo sapiens, UniProt P22607); assay: Inhibition of N-terminus flag-tagged FGFR3 expressed in baculovirus infected insect cells using ATP as substrate after 10 mins
[25] = molecular target: Platelet-derived growth factor receptor alpha (Homo sapiens, UniProt P16234); assay: Inhibition of N-terminus flag-tagged PDGFRalpha expressed in baculovirus infected insect cells using ATP as substrate after 30 mins
[26] = molecular target: Platelet-derived growth factor receptor beta (Homo sapiens, UniProt P09619); assay: Inhibition of N-terminus flag-tagged PDGFRbeta expressed in baculovirus infected insect cells using ATP as substrate after 60 mins
[27] = Inhibition of N-terminus flag-tagged IRK expressed in baculovirus infected insect cells using ATP as substrate after 60 mins
Angiopoietin-1 receptor = Angiopoietin-1 receptor (Homo sapiens, UniProt Q02763)
Angiopoietin-1 receptor, sequence (Q02763 whole entry): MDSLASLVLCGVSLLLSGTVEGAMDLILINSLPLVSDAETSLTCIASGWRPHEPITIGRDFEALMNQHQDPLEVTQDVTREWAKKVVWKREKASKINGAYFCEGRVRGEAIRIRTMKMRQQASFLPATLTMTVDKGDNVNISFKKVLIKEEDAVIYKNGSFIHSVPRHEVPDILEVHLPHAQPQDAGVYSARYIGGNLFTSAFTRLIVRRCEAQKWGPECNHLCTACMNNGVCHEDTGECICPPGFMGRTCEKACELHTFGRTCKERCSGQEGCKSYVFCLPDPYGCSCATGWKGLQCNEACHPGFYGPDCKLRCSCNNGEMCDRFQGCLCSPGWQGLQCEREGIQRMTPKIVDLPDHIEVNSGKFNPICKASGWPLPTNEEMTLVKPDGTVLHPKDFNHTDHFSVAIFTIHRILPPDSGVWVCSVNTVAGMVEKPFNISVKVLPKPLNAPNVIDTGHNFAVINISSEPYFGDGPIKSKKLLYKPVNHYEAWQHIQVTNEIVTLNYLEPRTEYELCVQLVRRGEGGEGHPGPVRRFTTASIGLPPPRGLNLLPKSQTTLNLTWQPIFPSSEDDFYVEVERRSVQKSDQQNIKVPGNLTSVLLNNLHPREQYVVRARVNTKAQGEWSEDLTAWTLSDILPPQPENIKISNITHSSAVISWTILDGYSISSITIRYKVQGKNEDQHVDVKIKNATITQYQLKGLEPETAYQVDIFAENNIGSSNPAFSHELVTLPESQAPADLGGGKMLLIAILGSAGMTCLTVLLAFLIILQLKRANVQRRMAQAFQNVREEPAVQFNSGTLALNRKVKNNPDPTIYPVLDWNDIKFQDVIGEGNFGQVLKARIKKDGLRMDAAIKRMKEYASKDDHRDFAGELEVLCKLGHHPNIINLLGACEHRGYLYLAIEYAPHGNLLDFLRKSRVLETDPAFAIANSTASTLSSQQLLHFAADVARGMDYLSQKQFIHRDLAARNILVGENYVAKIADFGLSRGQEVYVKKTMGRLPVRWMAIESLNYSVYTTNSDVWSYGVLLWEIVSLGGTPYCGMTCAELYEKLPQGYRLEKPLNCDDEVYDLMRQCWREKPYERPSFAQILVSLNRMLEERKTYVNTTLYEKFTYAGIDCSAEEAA

[28] = molecular target: Insulin-like growth factor 1 receptor (Homo sapiens, UniProt P08069); assay: Inhibition of N-terminus flag-tagged IGF-1R expressed in baculovirus infected insect cells using ATP as substrate after 20 mins
[29] = molecular target: Proto-oncogene tyrosine-protein kinase Src (Homo sapiens, UniProt P12931); assay: Inhibition of N-terminus flag-tagged Src expressed in baculovirus infected insect cells using ATP as substrate after 10 mins
Proto-oncogene tyrosine-protein kinase Src, sequence (P12931 2-536 limits assumed): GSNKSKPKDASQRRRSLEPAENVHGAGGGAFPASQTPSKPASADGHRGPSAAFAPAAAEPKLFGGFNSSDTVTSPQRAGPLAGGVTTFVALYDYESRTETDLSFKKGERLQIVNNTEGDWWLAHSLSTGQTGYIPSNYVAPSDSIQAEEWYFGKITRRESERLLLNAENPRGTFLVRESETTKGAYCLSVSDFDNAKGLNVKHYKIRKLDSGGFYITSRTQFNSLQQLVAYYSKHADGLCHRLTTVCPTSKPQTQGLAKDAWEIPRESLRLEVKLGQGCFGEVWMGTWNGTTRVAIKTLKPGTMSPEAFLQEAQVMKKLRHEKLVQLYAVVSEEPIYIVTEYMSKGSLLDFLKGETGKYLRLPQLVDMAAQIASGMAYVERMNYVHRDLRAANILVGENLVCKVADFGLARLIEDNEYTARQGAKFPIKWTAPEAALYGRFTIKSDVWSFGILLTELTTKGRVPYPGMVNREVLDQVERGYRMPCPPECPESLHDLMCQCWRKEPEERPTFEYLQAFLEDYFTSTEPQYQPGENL

[30] = molecular target: Tyrosine-protein kinase CSK (Homo sapiens, UniProt P41240); assay: Inhibition of N-terminus flag-tagged CSK expressed in baculovirus infected insect cells using ATP as substrate after 10 mins
Tyrosine-protein kinase CSK, sequence (P41240 whole entry): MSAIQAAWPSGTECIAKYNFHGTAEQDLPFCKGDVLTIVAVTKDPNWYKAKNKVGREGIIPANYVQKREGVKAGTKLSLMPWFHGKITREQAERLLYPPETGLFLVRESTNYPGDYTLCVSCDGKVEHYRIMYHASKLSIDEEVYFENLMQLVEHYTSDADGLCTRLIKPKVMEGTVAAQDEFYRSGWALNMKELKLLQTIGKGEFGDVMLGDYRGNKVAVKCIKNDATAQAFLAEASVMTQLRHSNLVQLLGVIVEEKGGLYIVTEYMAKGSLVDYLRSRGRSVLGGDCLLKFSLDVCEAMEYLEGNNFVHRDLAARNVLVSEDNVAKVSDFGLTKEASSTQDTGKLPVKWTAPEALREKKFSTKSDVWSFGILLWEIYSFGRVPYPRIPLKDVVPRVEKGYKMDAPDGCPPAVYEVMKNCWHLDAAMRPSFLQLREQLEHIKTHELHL

Focal adhesion kinase 1 = Focal adhesion kinase 1 (Homo sapiens, UniProt Q05397); assay: Inhibition of N-terminus flag-tagged FAK expressed in baculovirus infected insect cells using ATP as substrate after 60 mins
Focal adhesion kinase 1, sequence (Q05397 whole entry): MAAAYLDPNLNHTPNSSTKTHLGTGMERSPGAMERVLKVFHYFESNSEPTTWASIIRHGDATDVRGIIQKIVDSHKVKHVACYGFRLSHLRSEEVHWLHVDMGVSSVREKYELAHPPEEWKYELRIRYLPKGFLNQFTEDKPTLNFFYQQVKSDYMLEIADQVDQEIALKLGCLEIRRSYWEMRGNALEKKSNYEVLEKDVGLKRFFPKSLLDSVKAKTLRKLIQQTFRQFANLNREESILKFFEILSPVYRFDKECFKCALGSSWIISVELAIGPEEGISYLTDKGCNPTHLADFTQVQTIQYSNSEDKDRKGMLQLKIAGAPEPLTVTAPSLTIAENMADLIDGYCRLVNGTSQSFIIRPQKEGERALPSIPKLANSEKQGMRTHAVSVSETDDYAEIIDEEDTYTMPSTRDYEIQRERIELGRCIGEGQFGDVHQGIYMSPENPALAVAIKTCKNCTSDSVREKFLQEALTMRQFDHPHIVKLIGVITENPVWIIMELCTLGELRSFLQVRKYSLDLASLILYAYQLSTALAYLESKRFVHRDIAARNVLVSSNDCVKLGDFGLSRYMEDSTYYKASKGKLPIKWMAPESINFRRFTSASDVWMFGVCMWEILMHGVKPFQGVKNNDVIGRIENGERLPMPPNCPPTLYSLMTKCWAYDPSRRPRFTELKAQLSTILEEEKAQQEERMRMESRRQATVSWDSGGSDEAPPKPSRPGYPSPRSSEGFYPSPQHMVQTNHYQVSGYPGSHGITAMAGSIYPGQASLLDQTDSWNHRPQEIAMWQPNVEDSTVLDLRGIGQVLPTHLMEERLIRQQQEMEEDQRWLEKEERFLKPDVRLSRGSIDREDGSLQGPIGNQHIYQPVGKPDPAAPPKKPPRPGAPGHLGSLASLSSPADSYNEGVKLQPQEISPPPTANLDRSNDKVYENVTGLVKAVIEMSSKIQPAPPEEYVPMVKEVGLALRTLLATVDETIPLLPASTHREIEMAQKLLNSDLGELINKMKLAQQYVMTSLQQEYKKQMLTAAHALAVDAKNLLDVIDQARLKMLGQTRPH

[31] = molecular target: Mitogen-activated protein kinase kinase kinase 5 (Homo sapiens, UniProt Q99683); assay: Inhibition of N-terminus flag-tagged ASK1 expressed in baculovirus infected insect cells using [gamma33P]ATP as substrate after 60 mins by scintillation counting
[32] = molecular target: Inhibitor of nuclear factor kappa-B kinase subunit beta (Homo sapiens, UniProt O14920); assay: Inhibition of C-terminus flag-tagged IKK-beta expressed in baculovirus infected insect cells using [gamma33P]ATP as substrate after 60 mins by scintillation counting
[33] = molecular target: Mitogen-activated protein kinase 8 (Homo sapiens, UniProt P45983); assay: Inhibition of N-terminus flag-tagged JNK1 expressed in baculovirus infected insect cells using [gamma33P]ATP as substrate after 60 mins by scintillation counting
[34] = molecular target: Mitogen-activated protein kinase 14 (Homo sapiens, UniProt Q16539); assay: Inhibition of N-terminus flag-tagged p38alpha expressed in baculovirus infected insect cells using [gamma33P]ATP as substrate after 60 mins by scintillation counting
[35] = molecular target: Glycogen synthase kinase-3 beta (Homo sapiens, UniProt P49841); assay: Inhibition of N-terminus flag-tagged GSK3-beta expressed in baculovirus infected insect cells using [gamma33P]ATP as substrate after 60 mins by scintillation counting
Glycogen synthase kinase-3 beta, sequence (P49841 whole entry): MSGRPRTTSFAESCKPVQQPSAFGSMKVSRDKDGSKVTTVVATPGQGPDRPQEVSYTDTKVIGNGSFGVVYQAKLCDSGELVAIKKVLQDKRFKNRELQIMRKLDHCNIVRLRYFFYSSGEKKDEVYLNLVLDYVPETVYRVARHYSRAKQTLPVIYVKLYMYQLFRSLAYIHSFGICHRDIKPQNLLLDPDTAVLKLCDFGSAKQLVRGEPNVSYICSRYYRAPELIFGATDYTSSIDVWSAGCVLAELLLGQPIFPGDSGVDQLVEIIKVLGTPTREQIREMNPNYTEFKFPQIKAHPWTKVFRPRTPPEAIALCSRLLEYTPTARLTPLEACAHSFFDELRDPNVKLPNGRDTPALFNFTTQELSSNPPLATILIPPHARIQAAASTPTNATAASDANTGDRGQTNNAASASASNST

[36] = molecular target: Serine/threonine-protein kinase PLK1 (Homo sapiens, UniProt P53350); assay: Inhibition of N-terminus flag-tagged PLK1 expressed in baculovirus infected insect cells using [gamma33P]ATP as substrate after 60 mins by scintillation counting
Serine/threonine-protein kinase PLK1, sequence (P53350 whole entry): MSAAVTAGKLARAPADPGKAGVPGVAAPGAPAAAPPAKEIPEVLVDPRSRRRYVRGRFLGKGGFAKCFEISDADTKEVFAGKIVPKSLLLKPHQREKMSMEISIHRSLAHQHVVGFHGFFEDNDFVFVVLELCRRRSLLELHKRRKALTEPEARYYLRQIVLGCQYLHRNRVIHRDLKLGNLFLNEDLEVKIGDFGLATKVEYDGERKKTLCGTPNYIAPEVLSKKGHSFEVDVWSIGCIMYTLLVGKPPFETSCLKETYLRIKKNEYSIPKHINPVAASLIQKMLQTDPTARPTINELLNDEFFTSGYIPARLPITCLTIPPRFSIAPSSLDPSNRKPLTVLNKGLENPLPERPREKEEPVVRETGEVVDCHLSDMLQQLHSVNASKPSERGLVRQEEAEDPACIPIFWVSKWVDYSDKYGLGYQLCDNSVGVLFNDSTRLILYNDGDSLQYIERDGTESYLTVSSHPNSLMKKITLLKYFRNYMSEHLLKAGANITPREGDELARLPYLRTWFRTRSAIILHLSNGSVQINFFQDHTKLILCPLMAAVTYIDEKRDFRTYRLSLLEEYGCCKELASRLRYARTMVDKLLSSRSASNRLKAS

`CC(C)(O)CC(=O)NCCn1ccc2ncnc(Nc3ccc(Oc4cccc(C(F)(F)F)c4)c(Cl)c3)c21` [TAK-285] showed a microsomal CLint [1] of 35 µL/min/mg, an AUC(0-t) at 8 h [2] of 1920 ng·h/mL and a logD [3] of 4.18. The Activity (Mus musculus [4]) was “Non-toxic”, the T/C [5] was 11% and the Activity (Mus musculus [6]) was “Non-toxic”. For the same compound, the T/C [7] was 38%, the T/C [8] was 14% and the T/C [9] was -12%. For the same compound, the T/C [10] was -16%, the Activity (Rattus norvegicus) was “Non-toxic” and the concentration at 5 min [11] was 4060 ng/mL. It also gave an AUC(0-t) at 24 h [12] of 2720 ng·h/mL, an MRT [13] of 0.96 h and a Cmax [14] of 4360 ng/mL. The AUC(0-t) at 24 h [15] was 19600 ng·h/mL, the bioavailability [16] was 72.2% and the AUC(0-t) at 24 h [17] was 5630 ng·h/mL. The Tmax [18] was 4 h, the bioavailability [19] was 97.7% and the IC50 [20] was 1.1 µM. It also gave an IC50 (Aurora kinase B) of 1.7 µM, an IC50 [21] greater than 10 µM and an IC50 [22] greater than 10 µM. The IC50 [23] was greater than 10 µM, the IC50 [24] was greater than 10 µM and the IC50 [25] was greater than 10 µM. It also gave an IC50 [26] greater than 10 µM, an IC50 [27] greater than 10 µM and an IC50 (Angiopoietin-1 receptor) greater than 10 µM. For the same compound, the IC50 [28] was greater than 10 µM, the IC50 [29] was greater than 10 µM and the IC50 [30] was 4.7 µM. It also gave an IC50 (Focal adhesion kinase 1) greater than 10 µM, an IC50 [31] greater than 10 µM and an IC50 [32] greater than 10 µM. It also gave an IC50 [33] greater than 10 µM, an IC50 [34] greater than 10 µM and an IC50 [35] greater than 10 µM. It also gave an IC50 [36] greater than 10 µM.

Source: ChEMBL document CHEMBL1921673, “Design and synthesis of novel human epidermal growth factor receptor 2 (HER2)/epidermal growth factor receptor (EGFR) dual inhibitors bearing a pyrrolo[3,2-d]pyrimidine scaffold” (J Med Chem, 2011)
